Source: US7241775B2, “Composition, process of making, and medical use of substituted 4-phenyltetrahydroisoquinolines” (Sanofi-Aventis Deutschland GmbH, priority 2003, dated 2007)
Counter-ions that a name gives are not always drawn.

Biological target: T1, NHE3 (Homo sapiens, UniProt P48764)
T1 sequence (P48764 26-834): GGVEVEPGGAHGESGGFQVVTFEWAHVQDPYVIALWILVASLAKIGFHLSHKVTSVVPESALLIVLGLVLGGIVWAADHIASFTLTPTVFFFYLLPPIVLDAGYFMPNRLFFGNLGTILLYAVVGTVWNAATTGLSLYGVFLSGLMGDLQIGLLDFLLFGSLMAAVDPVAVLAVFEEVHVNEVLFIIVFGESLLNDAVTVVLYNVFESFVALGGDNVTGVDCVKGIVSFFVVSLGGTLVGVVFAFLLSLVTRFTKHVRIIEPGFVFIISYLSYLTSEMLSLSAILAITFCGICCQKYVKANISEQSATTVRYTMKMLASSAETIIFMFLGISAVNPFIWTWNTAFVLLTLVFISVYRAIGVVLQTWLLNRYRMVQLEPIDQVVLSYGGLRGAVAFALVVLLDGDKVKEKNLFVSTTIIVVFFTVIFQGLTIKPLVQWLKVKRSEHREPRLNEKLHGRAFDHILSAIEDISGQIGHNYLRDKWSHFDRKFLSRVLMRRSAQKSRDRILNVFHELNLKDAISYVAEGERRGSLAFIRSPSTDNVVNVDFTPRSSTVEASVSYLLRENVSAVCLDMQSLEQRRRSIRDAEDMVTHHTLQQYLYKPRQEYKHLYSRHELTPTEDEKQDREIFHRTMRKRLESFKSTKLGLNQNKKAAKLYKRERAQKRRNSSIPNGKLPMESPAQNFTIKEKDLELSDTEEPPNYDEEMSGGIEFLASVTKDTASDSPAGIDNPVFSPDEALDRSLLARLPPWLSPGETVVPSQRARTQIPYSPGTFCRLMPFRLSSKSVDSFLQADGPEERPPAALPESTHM
Test: Recovery of intracellular pH (pHi) after acidification, BCECF fluorescence, NHE3
Type: cell-based
Conditions: inhibition of pH recovery after intracellular acidification; rate registered at three minutes for NHE3; bicarbonate-free
Experimental: Pharmacological Data: Test Description:
This test determines the recovery of the intracellular pH (pHi) after acidification, and this recovery occurs in the case of functional NHE even under bicarbonate-free conditions. To this end, the pHi was determined using the pH-sensitive fluorescent dye BCECF (Calbiochem, the BCECF-AM precursor was used). The cells were initially loaded with BCECF. The BCECF fluorescence was determined in a Ratio Fluorescence Spectrometer (Photon Technology International, South Brunswick, N.J., USA) at excitation wavelengths of 505 and 440 nm and an emission wavelength of 535 nm and converted to the pHi by means of calibration curves. The cells had already been incubated in NH4Cl buffer (pH 7.4) in the course of the BCECF loading (NH4Cl buffer: 115 mM NaCl, 20 mM NH4Cl, 5 mM KCl, 1 mM CaCl2, 1 mM MgSO4, 20 mM Hepes, 5 mM glucose, 1 mg/ml BSA; a pH of 7.4 was established using 1 M NaOH). The intracellular acidification was induced by adding 975 μl of an NH4Cl-free buffer (see below) to 25 μl aliquots of the cells incubated in NH4Cl buffer. The subsequent rate of the pH recovery was registered at 2 minutes for NHE1, at 5 minutes for NHE2 and at three minutes for NHE3. For the calculation of the inhibitory potency of the tested substances, the cells were initially investigated in buffers in which complete or absolutely no pH recovery took place. For complete pH recovery (100%), the cells were incubated in Na^+-containing buffer (133.8 mM NaCl, 4.7 mM KCl, 1.25 mM CaCl2, 1.25 mM MgCl2, 0.97 mM Na2HPO4, 0.23 mM NaH2PO4, 5 mM Hepes, 5 mM glucose, a pH of 7.0 was established using 1 M NaOH). For the determination of the 0% value, the cells were incubated in an Na^+-free buffer (133.8 mM choline chloride, 4.7 mM KCl, 1.25 mM CaCl2, 1.25 mM MgCl2, 0.97 mM K2HPO4, 0.23 mM KH2PO4, 5 mM Hepes, 5 mM glucose, a pH of 7.0 was established using 1 M NaOH). The substances to be tested were made up in the Na^+-containing buffer. The recovery of the intracellular pH at each tested concentration of a substance was expressed in percent of the maximum recovery. The percentages of the pH recovery were used to calculate the IC50 value of the particular substance for the individual NHE subtypes by means of the program Sigma-Plot.

SMILES	IC50 [nM]
CN1Cc2c(Cl)cc(Cl)cc2C(c2cccc(C(=O)N[C@@H](CO)C(=O)O)c2)C1 (stereo partly drawn) [Example 16, (S)-2-[3-(6,8-dichloro-2-methyl-1,2,3,4-tetrahydroisoquinolin-4-yl)benzoylamino]-3-hydroxypropionic acid hydrochloride]	159
CN1Cc2c(Cl)cc(Cl)cc2C(c2cccc(NC(=O)N[C@@H](CC(N)=O)C(=O)O)c2)C1 (stereo partly drawn) [Example 13, {N-[3-(6,8-dichloro-2-methyl-1,2,3,4-tetrahydroisoquinolin-4-yl)phenyl]-N′-(1-carboxy-4-aminocarboxy-2S-butyl)}urea hydrochloride]	17.6
CN1Cc2c(Cl)cc(Cl)cc2C(c2cccc(NC(=O)[C@H](O)[C@@H](O)[C@H](O)[C@H](O)CO)c2)C1 (stereo partly drawn) [Example 2, N-[3-(6,8-dichloro-2-methyl-1,2,3,4-tetrahydroisoquinolin-4-yl)phenyl]-(2R,3S,4R,5R)-2,3,4,5,6-pentahydroxyhexanamide]	3.6
CN1Cc2c(Cl)cc(Cl)cc2C(c2ccc(NC(=O)[C@@H](N)CCCNC(=N)N)cc2)C1 (stereo partly drawn) [Example 31, N-[4-(6,8-dichloro-2-methyl-1,2,3,4-tetrahydroisoquinolin-4-yl)phenyl]-(S)-2-amino-5-guanidinopentanamide trifluoroacetate]	29.1
